# Source: article PMC9343874, “Comparative Pharmacokinetics of Cinobufacini Capsule and Injection by UPLC-MS/MS” (Frontiers in Pharmacology, 2022)
# Like-named read-outs stand apart in the source and are kept apart here.
# Experiments:
# [1] = Stability of analytes in rat plasma QC samples under storage conditions; type: physicochemical; details: n = 6; for Stability during 24 h at 4°C, RE: post-treatment storage in autosampler; for −80°C for 30 days, RE / Three freeze–thaw cycles, RE: rat plasma; for −80°C for 30 days, RE: long-term; for Three freeze–thaw cycles, RE: −80°C to room temperature
# Description: The stability of QC samples in six replicates at three concentrations (low, medium, and high levels) was analyzed under different storage conditions: the post-treatment stability was analyzed after storage in an autosampler (4°C) for 24 h. Freeze–thaw stability was investigated after three freeze–thaw cycles (−80°C to room temperature as one cycle). Long-term stability was assessed by analyzing QC samples kept at −80°C for 30 days. The concentrations of the analytes in the plasma samples and the QC samples were calculated by the calibration standard curve prepared each day. The stabilities of analytes were acceptable when the accuracy (RE, %) and precision (RSD, %) of all QC samples in all storage conditions were within ±15% compared to nominal concentrations.
# [2] = Pharmacokinetic study in rats after oral administration of cinobufacini capsule (UPLC-MS/MS of plasma); type: in vivo, rat; details: male, Sprague-Dawley, in vivo, rat plasma, mean ± SD, n = 6; for CL/F: read-out: CLz/F (converted); for MRT last: read-out: MRT0-t; for MRT inf: read-out: MRT0-∞; for half-life: read-out: T1/2z (converted); for Vd/F: read-out: Vz/F
# Description: (§1) Male Sprague–Dawley rats (weighing 200–220 g) of SPF grade were offered by Sippr/BK laboratory Animal, Corp., Ltd. (Shanghai, China) and fed in the Laboratory Animal Center of the Shanghai University of Traditional Chinese Medicine. All the rats were kept under environmentally controlled conditions with constant temperature (22–24°C) and humidity (60–65%). The animal experiment program in the present research was approved by the Animal Committee of the Shanghai University of Traditional Chinese Medicine (PZSHUTCM210618012).
# (§2) An Agilent 1290 liquid chromatographic system includes a G4220A quaternary pump, a G1326C column incubator, a G4226A automatic sampler, and a G1330B degasser. The column temperature was set to 35°C. A measure of 5 µL of samples were separated in an Agilent SB-C18 column (2.1 mm ×50 mm, 1.8 μm) and eluted at 0.3 ml/min, followed by gradient elution with water (0.1% V/V formic acid) (A) and acetonitrile (B) (0–1 min, 20%–20% B; 1–3.5 min, 20%–80% B; 4–4.1 min, 80%-20% B; 4.1–6 min, 20% B). The total run time was 6 minutes.
# (§3) An Agilent 1290 Infinity series UPLC system was combined with an Agilent 6460 series triple quadrupole mass spectrometer (Agilent Technologies, Santa Clara, CA, United States) to quantify all 13 analytes in an ESI-positive ionization mode. Quantitative analysis was performed in an MRM mode. The mass spectrum conditions were as follows: capillary voltage, 4000V; drying gas (N2), gas flow rate: 10 L/min; sprayer, 30 psi; gas temperature 350°C; The delta EMV (+) 200 V; collision gas (N2); dwell time, 25 ms. Agilent’s MassHunter Workstation software was used for data collection, peak area calculation, and quantitative analysis.
# (§4) A measure of 50 µL of the plasma sample was mixed with 10 µL of the internal standard solution (345 ng/ml) in a 1.5-ml centrifuge tube and vortexed for 5 min. The samples were extracted by 500 µL of ethyl acetate for 5 min and centrifuged at 4°C for 10 min (18000 rpm). All the supernatants were collected into another 1.5-ml centrifuge tube, dried under a gentle stream of nitrogen at 37°C, and then added with 50 µL of 80% methanol for resolution. The resolution samples were centrifuged at 4°C for 10 min (18000 rpm), and 5 µL supernatant was extracted and injected for analysis.
# (§5) Twenty-four male Sprague–Dawley rats (weigh 200–220 g) were divided into four groups with six rats in each group randomly, including three capsule groups at three different doses and one injection group. In the instructions for cinobufacini capsule and injection, the clinical dosage for adults is 2 g per 70 kg orally and 20 ml per 70 kg intravenously, converting to rat doses of 180 mg/kg and 1.8 ml/kg, respectively.
# (§6) In the pre-experiments, we compared cinobufacini capsule of 180 mg/kg (one-time clinical dose) and 900 mg/kg (five times of clinical dose) and Cinobufacini injection of 1.8 ml/kg, but concentrations of some compounds in plasma were too low and difficult to be quantified. […] The experimental rats were led to fast the night and were free to get access to water for 12 h before the pharmacokinetic study. After administration, blood samples (approximately 150 μL) of rats were collected via retro-orbital sinus into heparinized centrifuge tubes at 0.05, 0.083, 0.25, 0.5, 0.75, 1, 2, 4, 6, 8, and 10 h. After centrifugation at 5,000 rpm for 10 min, the plasma was transferred to 1.5-ml polypropylene tubes and stored at −80°C until UPLC-MS/MS analysis.
# (§7) GraphPad Prism software (version 8.0.2) was used to draw the mean plasma concentration–time curves of all analytes. The pharmacokinetic parameters were calculated by DAS 3.2.8 software. Meanwhile, the pharmacokinetic data on rats were presented as mean ± standard deviation (SD). Differences of pharmacokinetic parameters between groups were analyzed by the t-test using SPSS software (version 26.0). Differences were considered significant statistically when the p-values were <0.05 and very significant statistically when the p-values were <0.01.
# [3] = Pharmacokinetic study in rats after intravenous administration of cinobufacini injection (UPLC-MS/MS of plasma); type: in vivo, rat
# Description: as §1, §2, §3, §4, §5, §6, §7
# [4] = high QC level (249.58–250.28 ng/ml)
# [5] = medium QC level (49.92–50.06 ng/ml)
# [6] = oral cinobufacini capsule 0.9 g/kg (low)
# [7] = oral cinobufacini capsule 1.8 g/kg (medium)
# [8] = oral cinobufacini capsule 3.6 g/kg (high)
Structure (SMILES),"Stability during 24 h at 4°C, RE [1, 4]","Stability during 24 h at 4°C, RE ([1]; low QC level (4.99–5.00 ng/ml))","Stability during 24 h at 4°C, RE [1, 5]","−80°C for 30 days, RE [1, 4]","−80°C for 30 days, RE ([1]; low QC level (4.99–5.00 ng/ml))","−80°C for 30 days, RE [1, 5]","Three freeze–thaw cycles, RE [1, 4]","Three freeze–thaw cycles, RE ([1]; low QC level (4.99–5.00 ng/ml))","Three freeze–thaw cycles, RE [1, 5]","AUC(0-inf) [2, 6]","AUC(0-t) [2, 6]","Cmax [2, 6]","Tmax [2, 6]","CL/F [2, 6]","MRT last [2, 6]","MRT inf [2, 6]","half-life [2, 6]","Vd/F [2, 6]","AUC(0-inf) [2, 7]","AUC(0-t) [2, 7]",other results
"C[C@]12CC[C@H](O)C[C@H]1CC[C@@H]1[C@@H]2[C@H](O)C(=O)[C@]2(C)[C@@H](c3ccc(=O)oc3)CC[C@]12O [ABG, arenobufagin]",−4.1%,7.4%,−5.3%,2.3%,7.1%,8.3%,0.7%,2.5%,3.3%,15.5 ± 4.73 ng·h/mL,15.5 ± 4.73 ng·h/mL,13.8 ± 6.4 ng/mL,27 ± 16.2 min,109 mL/min/kg,86.4 ± 34.8 min,88.2 ± 36 min,49.2 ± 39.6 min,8.01 ± 5.68 L/kg,45.9 ± 13.1 ng·h/mL,44.1 ± 10.6 ng·h/mL,"Cmax [2, 7]: 36.7 ± 13.1 ng/mL; Tmax [2, 7]: 19.2 ± 7.2 min; CL/F [2, 7]: 71.2 mL/min/kg; MRT last [2, 7]: 89.4 ± 61.8 min; MRT inf [2, 7]: 104 ± 77.4 min; half-life [2, 7]: 38.4 ± 9.6 min; Vd/F [2, 7]: 4.2 ± 1.25 L/kg; AUC(0-inf) [2, 8]: 87.6 ± 27.8 ng·h/mL; AUC(0-t) [2, 8]: 87.3 ± 27.4 ng·h/mL; Cmax [2, 8]: 77.9 ± 24.2 ng/mL; Tmax [2, 8]: 19.2 ± 7.2 min; CL/F [2, 8]: 77.5 mL/min/kg; MRT last [2, 8]: 72 ± 15.6 min; MRT inf [2, 8]: 73.8 ± 18.6 min; half-life [2, 8]: 53.4 ± 38.4 min; Vd/F [2, 8]: 5.66 ± 3.45 L/kg; concentrations in most rat plasma samples relative to LLOQ ([3]; after intravenous administration of cinobufacini injection, pharmacokinetic parameters could not be calculated): far below the LLOQs; detection in rat plasma ([3]; cinobufacini injection group, intravenous): could be detected"
"C[C@]12CC[C@H]3[C@@H](CC[C@]4(O)C[C@@H](O)CC[C@]34C=O)[C@@]1(O)CC[C@@H]2c1ccc(=O)oc1 [HBG, hellebrigenin]",0.8%,10.2%,−4.7%,−1.3%,−5.0%,8.9%,1.5%,9.3%,−2.1%,4.21 ± 2.23 ng·h/mL,3.97 ± 1.73 ng·h/mL,2.47 ± 1.38 ng/mL,56.4 ± 45 min,237 mL/min/kg,215 ± 97.8 min,229 ± 119 min,61.2 ± 36 min,14.2 ± 3.88 L/kg,13.8 ± 5.4 ng·h/mL,13.7 ± 4.3 ng·h/mL,"Cmax [2, 7]: 8.36 ± 2.92 ng/mL; Tmax [2, 7]: 40.8 ± 21 min; CL/F [2, 7]: 110 mL/min/kg; MRT last [2, 7]: 137 ± 75.6 min; MRT inf [2, 7]: 153 ± 91.8 min; half-life [2, 7]: 80.4 ± 65.4 min; Vd/F [2, 7]: 11.1 ± 5.04 L/kg; AUC(0-inf) [2, 8]: 31.1 ± 11.4 ng·h/mL; AUC(0-t) [2, 8]: 31.1 ± 11.4 ng·h/mL; Cmax [2, 8]: 18.2 ± 5.84 ng/mL; Tmax [2, 8]: 23.4 ± 12 min; CL/F [2, 8]: 118 mL/min/kg; MRT last [2, 8]: 128 ± 49.8 min; MRT inf [2, 8]: 128 ± 49.2 min; half-life [2, 8]: 37.8 ± 6 min; Vd/F [2, 8]: 6.35 ± 2.55 L/kg"
"C[C@]12CC[C@H](O)C[C@@]1(O)CC[C@@H]1[C@@H]2CC[C@]2(C)[C@@H](c3ccc(=O)oc3)CC[C@]12O [TCG, telocinobufagin]",−4.7%,−0.3%,−4.2%,−2.1%,0.9%,3.8%,-6.6%,5.8%,0.0%,24.5 ± 10.3 ng·h/mL,24.5 ± 10.3 ng·h/mL,35.2 ± 21 ng/mL,21.6 ± 12 min,128 mL/min/kg,38.4 ± 3.6 min,38.4 ± 3.6 min,9.6 ± 0.6 min,1.75 ± 0.6 L/kg,89.9 ± 24.1 ng·h/mL,89.7 ± 23.8 ng·h/mL,"Cmax [2, 7]: 109 ± 41.3 ng/mL; Tmax [2, 7]: 17.4 ± 5.4 min; CL/F [2, 7]: 66.2 mL/min/kg; MRT last [2, 7]: 43.8 ± 6.6 min; MRT inf [2, 7]: 44.4 ± 6.6 min; half-life [2, 7]: 12.6 ± 6.6 min; Vd/F [2, 7]: 1.13 ± 0.37 L/kg; AUC(0-inf) [2, 8]: 217 ± 82.4 ng·h/mL; AUC(0-t) [2, 8]: 217 ± 82.4 ng·h/mL; Cmax [2, 8]: 253 ± 83.8 ng/mL; Tmax [2, 8]: 19.2 ± 7.2 min; CL/F [2, 8]: 60.3 mL/min/kg; MRT last [2, 8]: 49.8 ± 7.8 min; MRT inf [2, 8]: 49.8 ± 7.8 min; half-life [2, 8]: 31.8 ± 1.2 min; Vd/F [2, 8]: 2.76 ± 1.67 L/kg"
